Results reported in US20200037609A1, “HERBICIDAL COMPOSITIONS AND METHODS OF USE THEREOF” (The Regents of the University of California, priority 2017, published 2020).

Target: T1, Arabidopsis thaliana housekeeping DHAD (pDHAD) (Arabidopsis thaliana, UniProt Q9LIR4)
T1 construct: […]; 6xHis (N); made in house; host or cells: E. coli BL21 (DE3)
T1 sequence (Q9LIR4 35-608): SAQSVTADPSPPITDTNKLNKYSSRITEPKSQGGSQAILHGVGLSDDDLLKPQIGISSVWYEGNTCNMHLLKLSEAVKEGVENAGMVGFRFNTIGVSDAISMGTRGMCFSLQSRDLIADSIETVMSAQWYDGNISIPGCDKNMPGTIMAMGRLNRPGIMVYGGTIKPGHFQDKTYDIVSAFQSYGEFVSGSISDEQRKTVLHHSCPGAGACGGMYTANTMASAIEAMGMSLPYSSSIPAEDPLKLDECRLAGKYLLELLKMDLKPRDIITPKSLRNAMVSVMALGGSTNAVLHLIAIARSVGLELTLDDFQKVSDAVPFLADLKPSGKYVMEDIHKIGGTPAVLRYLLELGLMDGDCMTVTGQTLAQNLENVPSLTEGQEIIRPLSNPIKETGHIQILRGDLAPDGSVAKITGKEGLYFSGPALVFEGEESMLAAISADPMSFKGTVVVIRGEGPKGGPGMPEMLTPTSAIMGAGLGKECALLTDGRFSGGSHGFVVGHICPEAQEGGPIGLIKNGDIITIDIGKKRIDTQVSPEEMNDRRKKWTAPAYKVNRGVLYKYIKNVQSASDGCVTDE
Test: DHAD enzymatic inhibition assay (phenylhydrazine derivatization, LC-MS)
Assay type: biochemical
Method: Enzymatic activity reactions were carried out in […] volumes containing 50 mM storage buffer, 10 mM (±)-Sodium 2,3-dihydroxyisovalerate hydrate (DHAD substrate) and 1 μM purified DHAD enzyme. After incubation for 30 minutes at 30° C., the reaction was stopped by adding an equal volume of ethanol. 1/10 volumes of 100 mM phenylhydrozine was added at room temperature for 30 minutes to derivatize the DHAD-synthesized molecule (3-methyl-2-oxo-butanoic acid) into a detectable derivatization product (DDP). See FIG. 5A for an overview of reactions.
Inhibition assays were carried out according to the reactions described above. First, phenylhydrozine was added to 3-methyl-2-oxo-butanoic acid to validate the derivatization reaction. Next, DHAD substrate was incubated with 1 μM purified DHAD enzyme from A. thaliana (with or without DMSO) then derivatized with phenylhydrozine to validate the activity of the purified DHAD enzyme. Finally, DHAD substrate was incubated with 1 μM purified DHAD enzyme from A. thaliana and 1 mM aspterric acid in DMSO then derivatized with phenylhydrozine to determine if DHAD was inhibited by aspterric acid. 20 μL of the reaction mixture was subject to LC-MS analysis, and DDP was detected by UV absorption at 350 nm. The area of the peak that corresponded to DDP was used to quantify the amount of (±)-Sodium 2,3-dihydroxyisovalerate hydrate that was converted into DDP.
Inhibition assays were carried out according to the reactions described above by incubating purified DHAD enzymes (either the housekeeping DHAD from Aspergillus terreus, the housekeeping DHAD from Arabidopsis thaliana, or AstD from Aspergillus terreus) with aspterric acid at various concentrations. For AstD, up to 8 mM of aspterric acid was tested. […] The half maximal inhibitory concentration (IC50) and the effect of aspterric acid on the enzyme kinetics of each purified DHAD enzyme was calculated based on the initial reaction rates observed in the inhibition assays.
Biochemical assay of DHADs. […] The area of the HPLC peak with UV absorption at 350 nm was used to quantify the amount of 6. […]

## CC(C)=C1CC[C@]23CO[C@H](C2)[C@@](O)(C(=O)O)CC[C@@H]13 [aspterric acid]
10 μM AA
  pDHAD activity in presence of AA: abolished pDHAD activity
1 mM aspterric acid, 1 μM enzyme
  DHAD enzymatic activity in presence of aspterric acid: completely inhibited
Kinetic analyses
  mode of inhibition of pDHAD: competitive inhibitor
